Test results from patent publication US20100209536A1, “Methods and Kits for Use in the Treatment and Prevention of Diseases or Conditions of the Immune System or Infectious Diseases” (The Brigham and Women's Hospital, Inc., priority 2006, published 2010).

Legend:
Assay type in all cases: in vivo, human
[1] = tested on: severe asthma exacerbations in childhood asthmatics; experiment: Childhood Asthma Management Program: baseline serum 25(OH)D and outcomes in childhood asthmatics on inhaled corticosteroid
Text: We measured 25(OH)D levels in stored serum (collected on entry into the trial) from 305 childhood asthmatics who were randomized to the inhaled corticosteroid arm of the multi-center Childhood Asthma Management Program. We then analyzed baseline 25(OH)D levels for their association with severe asthma exacerbations (defined as emergency room visits or hospitalizations for asthma) over the course of the 4-year trial.

[2] = tested on: respiratory infections in the 2-year old children; experiment: Project Viva antioxidant study: maternal intake and respiratory infections in 2-year old children
Text: (§1) Study subjects were enrolled in Project Viva, as described above. Recruitment and retention procedures have previously been published (Gillman et al., J. Pediatr. 144:240-245, 2004). We obtained information directly from participants and from medical records as detailed previously (Rifas-Shiman, Paediatr. Perinat. Epidemiol. 20:35-42, 2006). Data collected from interviews and questionnaires included demographics (infant gender, maternal marital status, and race), socioeconomic status (education and household income), and reproductive history (maternal gravidity, pre-pregnancy height and body mass index, and smoking). Questionnaires that inquired about infant health, feeding, and the home environment were administered when the child was 6 months, 1 year, and 2 years of age. Among 2,128 delivered infants in Project Viva, we excluded 228 participants because of missing first and second trimester diet assessment data and an additional 37 participants with a gestation of less than 34 completed weeks.
We assessed maternal diet using semi-quantitative food-frequency questionnaires (FFQ) validated for use during pregnancy (Fawzi et al., Ann. Epidemiol. 14:754-762, 2004), and used in several of our previous studies of maternal diet and offspring outcomes (Oken et al., Am. J. Epidemiol. 160:774-783, 2004; Huh et al., Int. J. Epidemiol. 34:378-384, 2005; Gillman et al., Circulation 110:1990-1995, 2004). As noted above, the FFQ used at the 1st visit reflected intakes in the 1st trimester; the time referent was “during this pregnancy,” that is from the date of the last menstrual period until the assessment, at an average of about 10 weeks gestation. […] Also as noted above, the FFQ used at the 2nd visit (26 to 28 weeks of gestation) reflected intakes during the 2nd trimester; the time referent was “during the past 3 months.” The 2nd trimester instrument was the same as that for the 1st trimester except that we assessed use of vitamins/supplements as part of the self-completed FFQ. […]

[3] = tested on: any wheeze in the first 2 yrs; experiment: Project Viva antioxidant study: maternal intake and any wheeze in the first 2 yrs; conditions: for Any wheeze in the first 2 yrs, Univariate Model OR (95% CI) / Any wheeze in the first 2 yrs, Multivariable Model OR (95% CI): including supplements; for Any Wheeze, Foods Only OR / Any Wheeze, Supplements Only OR: univariate; for Any Wheeze, Foods Only OR: intake from foods only; for Any Wheeze, Supplements Only OR: intake from supplements only; for Association of total maternal intake with any wheeze in univariable models: total intakes
Text: as §1
(§2) We assessed maternal diet using semi-quantitative food-frequency questionnaires (FFQ) validated for use during pregnancy (Fawzi et al., Ann. Epidemiol. 14:754-762, 2004), and used in several of our previous studies of maternal diet and offspring outcomes (Oken et al., Am. J. Epidemiol. 160:774-783, 2004; Huh et al., Int. J. Epidemiol. 34:378-384, 2005; Gillman et al., Circulation 110:1990-1995, 2004). As noted above, the FFQ used at the 1st visit reflected intakes in the 1st trimester; the time referent was “during this pregnancy,” that is from the date of the last menstrual period until the assessment, at an average of about 10 weeks gestation. To assess vitamin and supplement intake during the 1st trimester, we administered a separate interview that queried dose, duration, and brand/type of multivitamin, prescribed prenatal vitamins, and supplements. Also as noted above, the FFQ used at the 2nd visit (26 to 28 weeks of gestation) reflected intakes during the 2nd trimester; the time referent was “during the past 3 months.” The 2nd trimester instrument was the same as that for the 1st trimester except that we assessed use of vitamins/supplements as part of the self-completed FFQ.
(§3) To calculate intake of nutrients, we again used the Harvard nutrient composition database, which contains food composition values from the U.S. Department of Agriculture, supplemented by other data sources (U.S. Department of Agriculture ARS. USDA National Nutrient Database for Standard Reference, Release 14, 5R14; 2001). All nutrients were adjusted for total energy intake using the nutrient residuals method (Willett, Am. J. Clin. Nutr. 45:354-360, 1987). Mean nutrient intakes from the 1st and 2nd trimesters were used as the exposure in the analyses. If a participant only completed one FFQ, then nutrients calculated from that questionnaire were taken as the exposure of interest. One thousand one hundred and thirty-five (88.0%) of the 1,290 participants completed both FFQs, 96 (7.4%) completed the first trimester FFQ only, and 59 (4.6%) completed the second trimester FFQ only.
(§4) We ascertained the wheeze outcomes from questions from the First Year and Second Year Questionnaires: “since your child was born/since your child was […], has he/she ever had wheezing (or whistiling in the chest)?” “Any wheeze” was defined as a positive response to the question at either the first or second year questionnaire. “Recurrent wheeze” was defined as positive responses to the questions in both the first and second year questionnaires. […] “Respiratory infections” was defined as positive responses to one of three questions: “since your child was born/12 months old, have you been told by a health care professional (such as a doctor, physician assistant, or nurse practitioner) that your child has: (a) bronchiolitis; (b) pneumonia; (c) bronchitis, croup, or any other respiratory infection?” on either the first or second year questionnaires. […]

[4] = tested on: recurrent wheeze in the first 2 yrs; experiment: Project Viva antioxidant study: maternal intake and recurrent wheeze in the first 2 yrs; conditions: for Recurrent wheeze in the first 2 yrs, Multivariable Model OR (95% CI) / Recurrent wheeze in the first 2 yrs, Univariate Model OR (95% CI): including supplements; for Recurrent Wheeze, Foods Only OR / Recurrent Wheeze, Supplements Only OR: univariate; for Recurrent Wheeze, Foods Only OR: intake from foods only; for Recurrent Wheeze, Supplements Only OR: intake from supplements only
Text: as §1, §2, §3, §4

[5] = 2nd vs 1st (lowest) quartile of maternal intake, calorie adjusted, n = 1,161
[6] = 2nd vs 1st (lowest) quartile of maternal intake
[7] = 3rd vs 1st (lowest) quartile of maternal intake
[8] = 4th (highest) vs 1st (lowest) quartile of maternal intake
[9] = 4th (highest) vs 1st (lowest) quartile of maternal intake, listed as zinc
[10] = 4th (highest) vs 1st (lowest) quartile
[11] = 2nd vs 1st (lowest) quartile of maternal intake, n = 1,038
[12] = 4th (highest) vs 1st (lowest) quartile of maternal intake, listed as vitamin E

| Molecule | Association of total maternal intake with respiratory infections in the children [2] | Any wheeze in the first 2 yrs, Univariate Model OR (95% CI) [3, 5] | Any wheeze in the first 2 yrs, Multivariable Model OR (95% CI) [3, 6] | Any Wheeze, Foods Only OR ([3]; 2nd vs 1st (lowest) quartile) | Any Wheeze, Supplements Only OR ([3]; 2nd vs 1st (lowest) quartile) | Any wheeze in the first 2 yrs, Multivariable Model OR (95% CI) [3, 7] | Any wheeze in the first 2 yrs, Univariate Model OR (95% CI) [3, 7] | Any Wheeze, Foods Only OR ([3]; 3rd vs 1st (lowest) quartile) | Any Wheeze, Supplements Only OR ([3]; 3rd vs 1st (lowest) quartile) | Any wheeze in the first 2 yrs, Multivariable Model OR (95% CI) [3, 8] | Any wheeze in the first 2 yrs, Univariate Model OR (95% CI) [3, 8] | Any Wheeze, Foods Only OR [3, 10] | Any Wheeze, Supplements Only OR [3, 10] | Association of total maternal intake with any wheeze in univariable models [3] | Recurrent wheeze in the first 2 yrs, Multivariable Model OR (95% CI) [4, 6] | Recurrent wheeze in the first 2 yrs, Univariate Model OR (95% CI) [4, 11] | Recurrent Wheeze, Foods Only OR ([4]; 2nd vs 1st (lowest) quartile) | Recurrent Wheeze, Supplements Only OR ([4]; 2nd vs 1st (lowest) quartile) | Recurrent wheeze in the first 2 yrs, Multivariable Model OR (95% CI) [4, 7] | Recurrent wheeze in the first 2 yrs, Univariate Model OR (95% CI) [4, 7] | further results |
| --- | --- | --- | --- | --- | --- | --- | --- | --- | --- | --- | --- | --- | --- | --- | --- | --- | --- | --- | --- | --- | --- |
| 25-Hydroxyvitamin D [25(OH)D] |  |  |  |  |  |  |  |  |  |  |  |  |  |  |  |  |  |  |  |  | Association with lung function, bronchodilator response, or airway responsiveness ([1]; 305 childhood asthmatics on inhaled corticosteroid): no associations; OR, severe asthma exacerbations over the course of the 4-year trial ([1]; children with 25(OH)D levels ≦30 ng/ml, on inhaled corticosteroid, adjusted for age, sex, height, baseline FEV1): 1.76 |
| [Zn] [Zinc, zinc] | not associated | 0.77 (0.55, 1.08) | 0.89 (0.61, 1.29) | 0.85 | 0.98 | 0.85 (0.59, 1.24) | 0.67 (0.47, 0.94)^5 | 0.60 | 0.67 | 0.59 (0.41, 0.88)^5 | 0.49 (0.34, 0.70)^5 | 0.60 | 0.63 | associated with lower risks | 0.61 (0.35, 1.06) | 0.56 (0.34, 0.92) | 0.70 | 0.94 | 0.89 (0.53, 1.49) | 0.73 (0.46, 1.17) | Any wheeze in the first 2 yrs, Multivariable Model OR (95% CI) [3, 9]: 0.59; Recurrent Wheeze, Foods Only OR ([4]; 3rd vs 1st (lowest) quartile): 0.65; Recurrent Wheeze, Supplements Only OR ([4]; 3rd vs 1st (lowest) quartile): 0.59; Recurrent wheeze in the first 2 yrs, Multivariable Model OR (95% CI) [4, 8]: 0.49 (0.27, 0.87); Recurrent wheeze in the first 2 yrs, Univariate Model OR (95% CI) [4, 8]: 0.41 (0.24, 0.69)^5; Recurrent wheeze in the first 2 yrs, Multivariable Model OR (95% CI) [4, 9]: 0.49; Recurrent Wheeze, Foods Only OR [4, 10]: 0.68; Recurrent Wheeze, Supplements Only OR [4, 10]: 0.51 |
| vitamin E | not associated | 0.71 (0.51, 1.01) | 0.90 (0.62, 1.31) | 0.75 | 0.86 | 0.84 (0.58, 1.22) | 0.67 (0.48, 0.95)^5 | 0.67 | 0.70 | 0.70 (0.48, 1.03) | 0.52 (0.36, 0.74)^5 | 0.69 | 0.63 | associated with lower risks | 0.79 (0.47, 1.34) | 0.60 (0.37, 0.98) | 0.66 | 0.83 | 0.90 (0.54, 1.52) | 0.68 (0.43, 1.10) | Any wheeze in the first 2 yrs, Multivariable Model OR (95% CI) [3, 12]: 0.70; Recurrent Wheeze, Foods Only OR ([4]; 3rd vs 1st (lowest) quartile): 0.58; Recurrent Wheeze, Supplements Only OR ([4]; 3rd vs 1st (lowest) quartile): 0.50; Recurrent wheeze in the first 2 yrs, Multivariable Model OR (95% CI) [4, 8]: 0.49 (0.27, 0.90)^5; Recurrent wheeze in the first 2 yrs, Univariate Model OR (95% CI) [4, 8]: 0.36 (0.20, 0.62)^5; Recurrent wheeze in the first 2 yrs, Multivariable Model OR (95% CI) [4, 12]: 0.49; Recurrent Wheeze, Foods Only OR [4, 10]: 0.61; Recurrent Wheeze, Supplements Only OR [4, 10]: 0.56 |
